Values after ≈ are worked out from the molar mass of the structure shown.
Key:
Experiment in all cases: ≥ marks a high value that may be exact or a test limit, other limits are often not marked, values filed in µg/mL are converted to µM
[1] = test system: Bacillus subtilis KCTC 3068
Enterococcus faecalis VR = test system: Enterococcus faecalis VR
Enterococcus faecalis = test system: Enterococcus faecalis
Enterococcus faecium VR = test system: Enterococcus faecium VR
Enterococcus faecium = test system: Enterococcus faecium
[2] = test system: Escherichia coli KCTC 1682
[3] = test system: Pseudomonas aeruginosa KCTC 1637
[4] = test system: Salmonella typhimurium KCTC 1926
[5] = test system: Staphylococcus aureus KCTC 1621
Staphylococcus aureus MR = test system: Staphylococcus aureus MR
[6] = test system: Staphylococcus epidermidis KCTC 1917
[7] = test system: Escherichia coli ATCC 25922
[8] = test system: Klebsiella pneumoniae ATCC 700603
[9] = test system: Pseudomonas aeruginosa ATCC 27853
[10] = test system: Staphylococcus aureus ATCC 29213
[11] = test system: Staphylococcus aureus ATCC 33591
[12] = test system: Staphylococcus aureus ATCC 700699
Candida glabrata 090902 = test system: Candida glabrata 090902
[13] = test system: Enterococcus faecalis 981
[14] = test system: Nocardia asteroides 201118
[15] = test system: Staphylococcus aureus ATCC 25923
[16] = test system: Candida albicans ATCC 90028
Candida albicans SC5314 = test system: Candida albicans SC5314
Candida krusei ATCC 6258 = test system: Candida krusei ATCC 6258
[17] = test system: Candida parapsilosis ATCC 22019

MIC [1] [µM]	MIC (Enterococcus faecalis VR) [µM]	MIC (Enterococcus faecalis) [µM]	MIC (Enterococcus faecium VR) [µM]	MIC (Enterococcus faecium) [µM]	MIC [2] [µM]	MIC [3] [µM]	MIC [4] [µM]	MIC [5] [µM]	MIC (Staphylococcus aureus MR) [µM]	MIC [6] [µM]	MIC [7] [µM]	MIC [8] [µM]	MIC [9] [µM]	MIC [10] [µM]	MIC [11] [µM]	MIC [12] [µM]	also measured	SMILES
30 (≈ 39.9 µg/mL)	15 (≈ 19.9 µg/mL)	30 (≈ 39.9 µg/mL)	30 (≈ 39.9 µg/mL)	7.5 (≈ 9.97 µg/mL)	30 (≈ 39.9 µg/mL)	30 (≈ 39.9 µg/mL)	30 (≈ 39.9 µg/mL)	30 (≈ 39.9 µg/mL)	30 (≈ 39.9 µg/mL)	30 (≈ 39.9 µg/mL)								CC[C@H](C)[C@H](NC(=O)[C@H](CS)NC(=O)[C@H](Cc1cnc[nH]1)NC(=O)[C@H](C)NC(=O)[C@H](C)N)C(=O)N[C@@H](C)C(=O)N[C@@H](CC(C)C)C(=O)N[C@@H](CCCN=C(N)N)C(=O)N[C@@H](CCCCN)C(=O)NCC(=O)N[C@@H](Cc1ccc(O)cc1)C(=O)N[C@@H](CCCCN)C(N)=O [AAHCIALRKGYK]
30 (≈ 28.8 µg/mL)	30 (≈ 28.8 µg/mL)	30 (≈ 28.8 µg/mL)	30 (≈ 28.8 µg/mL)	30 (≈ 28.8 µg/mL)	30 (≈ 28.8 µg/mL)	30 (≈ 28.8 µg/mL)	30 (≈ 28.8 µg/mL)	30 (≈ 28.8 µg/mL)	30 (≈ 28.8 µg/mL)	30 (≈ 28.8 µg/mL)								CC[C@H](C)[C@H](NC(=O)[C@H](CS)NC(=O)[C@H](CC(N)=O)NC(=O)[C@H](C)NC(=O)[C@H](C)N)C(=O)N[C@H](C(=O)N[C@@H](CC(C)C)C(=O)NCC(=O)N[C@@H](CCCCN)C(=O)N[C@@H](C)C(N)=O)[C@@H](C)O [AANCITLGKA]
7.5 (≈ 9.1 µg/mL)	30 (≈ 36.4 µg/mL)	30 (≈ 36.4 µg/mL)	15 (≈ 18.2 µg/mL)	3.8 (≈ 4.61 µg/mL)	30 (≈ 36.4 µg/mL)	7.5 (≈ 9.1 µg/mL)	7.5 (≈ 9.1 µg/mL)	7.5 (≈ 9.1 µg/mL)	7.5 (≈ 9.1 µg/mL)	7.5 (≈ 9.1 µg/mL)								CC[C@H](C)[C@H](NC(=O)[C@H](C)N)C(=O)N[C@@H](CCCN=C(N)N)C(=O)N[C@@H](CS)C(=O)N[C@@H](CC(C)C)C(=O)N[C@@H](C)C(=O)N[C@@H](CCCCN)C(=O)N[C@@H](CCCN=C(N)N)C(=O)N[C@@H](CCCN=C(N)N)C(=O)N[C@@H](CCCCN)C(N)=O [AIRCLAKRRK]
											> 100	> 100	> 100	> 100	≥ 100	≥ 100		CC[C@H](C)[C@H](NC(=O)[C@H](CC(=O)O)NC(=O)[C@H](CCCCN)NC(=O)[C@H](C)NC(=O)[C@H](C)NC(=O)CNC(=O)[C@H](CCCCN)NC(=O)[C@H](CC(C)C)NC(=O)[C@@H](NC(=O)[C@H](CC(=O)O)NC(=O)[C@@H](NC(=O)[C@@H](NC(=O)[C@H](C)N)C(C)C)C(C)C)[C@@H](C)CC)C(=O)N[C@@H](C)C(=O)NCC(=O)N[C@@H](Cc1cnc[nH]1)C(=O)N[C@@H](CC(C)C)C(=O)N[C@@H](C)C(=O)N[C@@H](CO)C(=O)N[C@@H](CCCCN)C(=O)N[C@H](C(=O)N[C@@H](CCSC)C(=O)N[C@@H](CC(N)=O)C(=O)N[C@@H](CCCCN)C(=O)N[C@@H](CC(C)C)C(N)=O)C(C)C [AVVDILKGAAKDIAGHLASKVMNKL]
																	MIC (Candida glabrata 090902): ≥ 100 µM; MIC [13]: 25 µM (≈ 35.1 µg/mL); MIC [14]: 12.5 µM (≈ 17.5 µg/mL); MIC [15]: 12.5 µM (≈ 17.5 µg/mL)	CC(C)C[C@H](NC(=O)[C@H](CC(C)C)NC(=O)CNC(=O)[C@H](CO)NC(=O)[C@H](CC(C)C)NC(=O)[C@H](CC(C)C)NC(=O)[C@H](CCCCN)NC(=O)CNC(=O)[C@@H](NC(=O)[C@H](Cc1ccccc1)NC(=O)[C@@H]1CCCN1C(=O)[C@H](CC(C)C)NC(=O)[C@@H](N)Cc1ccccc1)C(C)C)C(N)=O [FLPFVGKLLSGLL]
																	MIC [16]: ≥ 34.2 µM; MIC (Candida albicans SC5314): 17.1 µM (≈ 32 µg/mL); MIC (Candida krusei ATCC 6258): 17.1 µM (≈ 32 µg/mL); MIC [17]: 8.56 µM (≈ 16 µg/mL)	CC[C@H](C)[C@H](NC(=O)[C@@H](NC(=O)CN)C(C)C)C(=O)N[C@@H](CCCCN)C(=O)N[C@@H](C)C(=O)N[C@@H](C)C(=O)N[C@@H](CCCCN)C(=O)N[C@@H](CCCCN)C(=O)N[C@H](C(=O)N[C@H](C(=O)N[C@@H](CCCCN)C(=O)N[C@H](C(=O)N[C@@H](CC(C)C)C(=O)N[C@@H](CCCCN)C(=O)N[C@@H](CCCCN)C(=O)N[C@@H](CC(C)C)C(=O)N[C@@H](Cc1ccccc1)C(N)=O)C(C)C)C(C)C)C(C)C [GVIKAAKKVVKVLKKLF]
																	MIC [16]: ≥ 34.5 µM; MIC (Candida albicans SC5314): 17.2 µM (≈ 32 µg/mL); MIC (Candida krusei ATCC 6258): 17.2 µM (≈ 32 µg/mL); MIC [17]: 17.2 µM (≈ 32 µg/mL)	CC[C@H](C)[C@H](NC(=O)[C@@H](NC(=O)CN)C(C)C)C(=O)N[C@@H](CCCCN)C(=O)N[C@@H](C)C(=O)N[C@@H](C)C(=O)N[C@@H](CCCCN)C(=O)N[C@@H](CCCCN)C(=O)N[C@H](C(=O)N[C@H](C(=O)N[C@@H](CCCCN)C(=O)N[C@H](C(=O)N[C@@H](CC(C)C)C(=O)N[C@@H](CCCCN)C(=O)N[C@@H](CC(N)=O)C(=O)N[C@@H](CC(C)C)C(=O)N[C@@H](Cc1ccccc1)C(N)=O)C(C)C)C(C)C)C(C)C [GVIKAAKKVVKVLKNLF]
											3.12 (≈ 7.81 µg/mL)	25 (≈ 62.6 µg/mL)	50 (≈ 125 µg/mL)	100 (≈ 250 µg/mL)	25 (≈ 62.6 µg/mL)	≥ 50		CC[C@H](C)[C@H](NC(=O)[C@H](C)NC(=O)[C@H](CCCCN)NC(=O)[C@H](C)NC(=O)[C@H](C)NC(=O)CNC(=O)[C@H](CCCCN)NC(=O)[C@H](CC(C)C)NC(=O)[C@@H](NC(=O)[C@H](CC(=O)O)NC(=O)[C@@H](NC(=O)[C@@H](NC(=O)CN)C(C)C)C(C)C)[C@@H](C)CC)C(=O)N[C@@H](C)C(=O)NCC(=O)N[C@@H](Cc1cnc[nH]1)C(=O)N[C@@H](CC(C)C)C(=O)N[C@@H](C)C(=O)N[C@@H](CO)C(=O)N[C@@H](CCCCN)C(=O)N[C@H](C(=O)N[C@@H](CCSC)C(=O)N[C@@H](CC(N)=O)C(=O)N[C@@H](CCCCN)C(=O)N[C@@H](CC(C)C)C(N)=O)C(C)C [GVVDILKGAAKAIAGHLASKVMNKL]
											25 (≈ 63.3 µg/mL)	100 (≈ 253 µg/mL)	100 (≈ 253 µg/mL)	> 100	≥ 100	≥ 100		CC[C@H](C)[C@H](NC(=O)[C@H](CC(=O)O)NC(=O)[C@H](CCCCN)NC(=O)[C@H](C)NC(=O)[C@H](C)NC(=O)CNC(=O)[C@H](CCCCN)NC(=O)[C@H](CC(C)C)NC(=O)[C@@H](NC(=O)[C@H](CC(=O)O)NC(=O)[C@@H](NC(=O)[C@@H](NC(=O)CN)C(C)C)C(C)C)[C@@H](C)CC)C(=O)N[C@@H](C)C(=O)NCC(=O)N[C@@H](Cc1cnc[nH]1)C(=O)N[C@@H](CC(C)C)C(=O)N[C@@H](C)C(=O)N[C@@H](C)C(=O)N[C@@H](CCCCN)C(=O)N[C@H](C(=O)N[C@@H](CCSC)C(=O)N[C@@H](CC(N)=O)C(=O)N[C@@H](CCCCN)C(=O)N[C@@H](CC(C)C)C(N)=O)C(C)C [GVVDILKGAAKDIAGHLAAKVMNKL]
